# Experiments:
# antigen-induced diarrhea = assay: Mouse antigen-induced diarrheal model; format: in vivo; details: Balb/c mice, OVA
# Method: Balb/c female mice were used in this test. The animals were immunized through intraperitoneal administration of 50 μg of ovalbumin (OVA) and 1 mg of aluminium gel (alum), and after 2 weeks from the first immunization, they were again immunized under the same condition. […] The diarrheal condition was checked 1 hour after the OVA administration.
# T84 cells = assay: Chloride-dependent short circuit current (Isc) in human intestinal epithelial cells, Ussing system; format: cell-based; details: for effect on forskolin-induced Isc increase: forskolin 10 μM; for effect on thapsigargin-induced continuous Isc increase / effect on transient Isc increase seen before the sustained Isc increase: thapsigargin 1 μM
# Method: It is known that water secretion from epithelial cells is correlated with chloride ion secretion, and the effect to water secretion from epithelial cells may be evaluated through chloride-dependent current measurement.
# T84 cells, a human colon epithelial cell-derived cell line, were purchased from American Type Culture Collection (ATCC, USA). T84 cells (3×10^5 cells/well) were cultured on a polyethylenic mesh insert (Transwell® by Corning, USA)) on a 6-well microplate for 10 to 12 days. As the culture medium, 5% bovine calf serum-containing DMEM/F-12 (Gibco, USA) was used. The cultured T84 cells were set in the sample chamber of an Ussing short-circuit current measuring system, and the chloride-dependent short circuit current (Isc) was measured. Isc was induced by adding thapsigargin (1 μM) or forskolin (10 μM) to the T84 cell monolayer specimen at its top on the membrane side thereof. […] In each test, the data obtained by DPC addition were taken as chloride-dependent Isc base line data, and the effect of each test compound was revised.
# [1] = tested on: cholera toxin-induced intestinal hypersecretion; details: mouse, in vivo; for effect on cholera toxin-induced intestinal hypersecretion: iv, 1 mg/kg
# [2] = tested on: TNBS-induced chronic colitis; assay: Rat TNBS-induced chronic colitis model; details: Wistar rats
# [3] = tested on: oxazolone-induced acute colitis; assay: Rat oxazolone-induced acute colitis model; details: DA rats
# [4] = tested on: restrictive stress-induced diarrhea; assay: Rat stress-induced diarrheal model; format: in vivo; details: Wister rats
# Method: Wister male rats were used in this test. The animals were restrained in individual restrictive cages for 4 hours and given stress thereby to have diarrhea. […] Each group consisted of 19 to 20 animals. The statistical pharmaceutical potency analysis of the test compound was attained as a significant chi-square test, and its multiplicity was corrected by Bonferroni multiple comparison.
compound,measurement,setting,value
"C[C@]12C=CC(=O)C=C1CC[C@@H]1[C@@H]2[C@@H](O)C[C@@]2(C)[C@H]1CC[C@]2(O)C(=O)CO [Pred, prednisolone, reference compound]",effect on antigen-induced diarrhea (diarrheal symptom),antigen-induced diarrhea; 10 mg/kg po 1 hour before OVA,almost completely inhibited
"Clc1ccc(COC(Cn2ccnc2)c2ccc(Cl)cc2Cl)cc1 (centres unmarked) [econazole, reference compound]",effect on forskolin-induced Isc increase,T84 cells,dose-dependently inhibited
same,effect on thapsigargin-induced continuous Isc increase,T84 cells,inhibited
same,effect on transient Isc increase seen before the sustained Isc increase,T84 cells,did not affect
"CN(C)C(=O)C(CCN1CCC(O)(c2ccc(Cl)cc2)CC1)(c1ccccc1)c1ccccc1 [Lop, loperamide, reference compound]",effect on cholera toxin-induced intestinal hypersecretion,[1],effective
"O=C(O)c1cc(/N=N/c2ccc(S(=O)(=O)Nc3ccccn3)cc2)ccc1O [SSZ, sulfasalazine, reference compound]",effect on TNBS-induced colitis model,[2]; 100 mg/kg po once a day,showed a relieving effect
same,effect relative to that of the compound A (weaker),[2]; TNBS colitis,1/500
"CN1C2CCCC1CC(NC(=O)c1nn(C)c3ccccc13)C2 (centres unmarked) [Gra, granisetron, reference compound]",effect on cholera toxin-induced intestinal hypersecretion,[1],effective
"Cc1cc(C)c(C(=O)Nc2ccc(-n3nc(C(F)(F)F)cc3C(F)(F)F)cc2)cn1 [compound A, 4,6-Dimethyl-4′-[3,5-bis(trifluoromethyl)-1H-pyrazol-1-yl]nicotinanilide]",effect on cholera toxin-induced intestinal hypersecretion (ileal loop weight per unit length),[1]; po,dose-dependently inhibited
same,oral dose at which inhibition of cholera toxin-induced intestinal hypersecretion was significant,[1]; po,≥ 0.3 mg/kg
same,effect on diarrheal symptom,[3]; at least 0.1 mg/kg oral administration,almost completely inhibited
same,effect on MPO activity promotion,"[3]; oral 0.1, 1.0 or 10 mg/kg",MPO activity promotion inhibition
same,effect on diarrheal symptom,"[3]; oral 0.1, 1.0 or 10 mg/kg",diarrheal symptom relief
same,effect on intestinal tissue weight increase,"[3]; oral 0.1, 1.0 or 10 mg/kg",intestinal tissue weight increase inhibition
same,effect on disease activity index,"[3]; oral 0.1, 1.0 or 10 mg/kg, 24 hours after colitis onset",significant improvement effect
same,dose for diarrhea-inhibiting effect relative to dose for colitis symptom relieving effect,[3]; oxazolone colitis,about 1/100
same,effect on MPO activity exacerbation,[2]; 0.3 mg/kg po once a day,inhibition of MPO activity exacerbation
same,effect on diarrheal symptom,[2]; 0.3 mg/kg po once a day,diarrheal symptom relief
same,effect on intestinal tissue weight increase,[2]; 0.3 mg/kg po once a day,inhibition of intestinal tissue weight increase
same,effect on disease activity index,"[2]; 0.3 mg/kg po once a day, 15 days after colitis induction",significant improvement effect
same,effect on incidence rate of antigen-induced diarrhea,antigen-induced diarrhea; 3 or 10 mg/kg po 1 hour before OVA,dose-dependently inhibited
same,effect on forskolin-induced Isc increase,T84 cells,dose-dependently inhibited
same,effect on thapsigargin-induced continuous Isc increase,T84 cells,inhibited
same,effect on transient Isc increase seen before the sustained Isc increase,T84 cells,did not affect
same,effect on incidence rate of restrictive stress-induced diarrhea,[4]; 10 mg/kg oral administration group,significant inhibition
same,effect on incidence rate of restrictive stress-induced diarrhea,[4]; 1.0 or 10 mg/kg po 24 hours and 1 hour before 4 hours restraint,dose-dependently inhibited

# Reference: patent US20090131484A1, “PREVENTIVE OR REMEDY FOR BOWEL DISEASE” (ASTELLAS PHARMA INC, priority 2005, published 2009)
